Data published in ChEMBL document CHEMBL5236654, “Fine-tuning of nitrogen-containing bisphosphonate esters that potently induce degradation of HMG-CoA reductase” (Bioorg Med Chem, 2023).

molecular target: T1, 3-hydroxy-3-methylglutaryl-coenzyme A reductase (Homo sapiens, UniProt P04035); assay: Induction of HMGCR degradation in HEK293 cells incubated for 4 hrs by luciferase based assay; assay type: cell-based
T1 sequence (P04035 whole entry): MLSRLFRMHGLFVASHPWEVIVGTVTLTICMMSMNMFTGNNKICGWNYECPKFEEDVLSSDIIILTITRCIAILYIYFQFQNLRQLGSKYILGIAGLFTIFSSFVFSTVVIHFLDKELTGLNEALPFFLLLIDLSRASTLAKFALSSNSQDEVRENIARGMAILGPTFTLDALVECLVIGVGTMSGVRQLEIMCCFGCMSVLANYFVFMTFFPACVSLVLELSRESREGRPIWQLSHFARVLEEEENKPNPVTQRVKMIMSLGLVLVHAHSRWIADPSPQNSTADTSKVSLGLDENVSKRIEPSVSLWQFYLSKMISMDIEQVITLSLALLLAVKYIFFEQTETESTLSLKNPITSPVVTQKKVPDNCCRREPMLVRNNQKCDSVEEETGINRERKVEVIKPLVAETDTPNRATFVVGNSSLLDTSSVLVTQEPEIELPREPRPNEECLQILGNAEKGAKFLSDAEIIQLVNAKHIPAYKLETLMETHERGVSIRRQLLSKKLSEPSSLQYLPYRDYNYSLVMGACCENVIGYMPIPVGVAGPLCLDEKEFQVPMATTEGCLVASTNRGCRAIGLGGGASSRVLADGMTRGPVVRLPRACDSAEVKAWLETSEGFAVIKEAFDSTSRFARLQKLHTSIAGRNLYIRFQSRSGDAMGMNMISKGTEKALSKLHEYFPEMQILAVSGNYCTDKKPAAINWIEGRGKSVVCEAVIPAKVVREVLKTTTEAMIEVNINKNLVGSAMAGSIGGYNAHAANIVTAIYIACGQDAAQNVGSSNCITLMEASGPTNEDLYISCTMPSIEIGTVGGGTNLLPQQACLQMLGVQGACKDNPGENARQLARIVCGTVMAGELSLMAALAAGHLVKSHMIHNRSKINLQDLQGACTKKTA

SMILES | EC50 [nM]
CCC(CF)(CF)c1cc(CC(P(=O)(OC(C)C)OC(C)C)P(=O)(OC(C)C)OC(C)C)cc(C(CC)(CF)CF)n1 | 356
CC(C)OP(=O)(OC(C)C)C(Cc1cc(C(C)(C)C)nc2ccccc12)P(=O)(OC(C)C)OC(C)C | 1450
CC(C)OP(=O)(OC(C)C)C(Cc1cc(Cc2ccccc2)nc(C(C)(C)C)c1)P(=O)(OC(C)C)OC(C)C | 874
CCOP(=O)(OCC)C(Cc1cc(C(C)(C)C)nc(C(C)(C)C)c1)P(=O)(OCC)OCC | 337
CC(C)(C)c1cc(CC(P(=O)(OCC2CC2)OCC2CC2)P(=O)(OCC2CC2)OCC2CC2)cc(C(C)(C)C)n1 | > 10000
CC(C)COP(=O)(OCC(C)C)C(Cc1cc(C(C)(C)C)nc(C(C)(C)C)c1)P(=O)(OCC(C)C)OCC(C)C | > 10000
CC(C)OP(=O)(OC(C)C)C(Cc1cc(C2CCCCC2)nc(C2CCCCC2)c1)P(=O)(OC(C)C)OC(C)C | > 10000
CC(C)OP(=O)(OC(C)C)C(Cc1cc(C23CC4CC(CC(C4)C2)C3)nc(C23CC4CC(CC(C4)C2)C3)c1)P(=O)(OC(C)C)OC(C)C | > 10000
CC(C)OP(=O)(OC(C)C)C(Cc1cc(C(C)(C)C)nc(C(C)(C)COCc2ccccc2)c1)P(=O)(OC(C)C)OC(C)C | 311
CCCOP(=O)(OCCC)C(Cc1cc(C(C)(C)C)nc(C(C)(C)C)c1)P(=O)(OCCC)OCCC | 832
CC(C)OP(=O)(OC(C)C)C(Cc1cc(C(C)(C)CF)nc(C(C)(C)CF)c1)P(=O)(OC(C)C)OC(C)C | 84.2
CCCCOP(=O)(OCCCC)C(Cc1cc(C(C)(C)C)nc(C(C)(C)C)c1)P(=O)(OCCCC)OCCCC | > 10000
CC(C)OP(=O)(OC(C)C)C(Cc1cc(C(C)(C)C)nc(C(C)(C)C)n1)P(=O)(OC(C)C)OC(C)C | 450
CC(C)OP(=O)(OC(C)C)C(Cc1cc(C(C)(C)C)nc(C23CC4CC(CC(C4)C2)C3)c1)P(=O)(OC(C)C)OC(C)C | 2260

Further lines, results first:

EC50 [nM] | SMILES
132 | CC(C)OP(=O)(OC(C)C)C(Cc1cc(C(C)(C)C)nc(C(C)(C)C)c1)P(=O)(OC(C)C)OC(C)C
598 | CC(C)OP(=O)(OC(C)C)C(Cc1cc(C2CCCCC2)nc(C(C)(C)C)c1)P(=O)(OC(C)C)OC(C)C
97.6 | CC(C)OP(=O)(OC(C)C)C(Cc1cc(C(C)(C)C)nc(C(C)(C)CF)c1)P(=O)(OC(C)C)OC(C)C
336 | CCCC(C)(C)c1cc(CC(P(=O)(OC(C)C)OC(C)C)P(=O)(OC(C)C)OC(C)C)cc(C(C)(C)C)n1
389 | CC(C)OP(=O)(OC(C)C)C(Cc1cc(C(C)(C)C)nc(C(C)(C)CO)c1)P(=O)(OC(C)C)OC(C)C
98.2 | CCC(C)(C)c1cc(CC(P(=O)(OC(C)C)OC(C)C)P(=O)(OC(C)C)OC(C)C)cc(C(C)(C)CC)n1
990 | CCCCC(CC)c1cc(CC(P(=O)(OC(C)C)OC(C)C)P(=O)(OC(C)C)OC(C)C)cc(C(C)(C)C)n1 (centres undefined)
351 | CC(C)OP(=O)(OC(C)C)C(Cc1cc(C(C)C)nc(C(C)(C)C)c1)P(=O)(OC(C)C)OC(C)C
152 | CCC(C)(C)c1cc(CC(P(=O)(OC(C)C)OC(C)C)P(=O)(OC(C)C)OC(C)C)cc(C(C)(C)C)n1
722 | CCC(CC)c1cc(CC(P(=O)(OC(C)C)OC(C)C)P(=O)(OC(C)C)OC(C)C)cc(C(C)(C)C)n1
492 | COCOCC(C)(C)c1cc(CC(P(=O)(OC(C)C)OC(C)C)P(=O)(OC(C)C)OC(C)C)cc(C(C)(C)C)n1
693 | CC(C)OP(=O)(OC(C)C)C(Cc1cc(C(C)(C)C)cc(C(C)(C)C)n1)P(=O)(OC(C)C)OC(C)C
102 | CCC(CF)(CF)c1cc(CC(P(=O)(OC(C)C)OC(C)C)P(=O)(OC(C)C)OC(C)C)cc(C(C)(C)C)n1

molecular target: T1, 3-hydroxy-3-methylglutaryl-coenzyme A reductase; assay: Induction of HMGCR degradation in human HepG2 cells incubated for 3 hrs by densitometric analysis; assay type: cell-based

SMILES | EC50 [nM]
CCOP(=O)(OCC)C(Cc1cc(C(C)(C)C)c(O)c(C(C)(C)C)c1)P(=O)(OCC)OCC | 1100

molecular target: T2, 3-hydroxy-3-methylglutaryl-coenzyme A reductase (Cricetulus griseus, UniProt P00347); assay: Induction of HMGCR degradation in CHO-7 cells incubated for 16 hrs by immunoblotting assay; assay type: cell-based
T2 sequence (P00347 whole entry): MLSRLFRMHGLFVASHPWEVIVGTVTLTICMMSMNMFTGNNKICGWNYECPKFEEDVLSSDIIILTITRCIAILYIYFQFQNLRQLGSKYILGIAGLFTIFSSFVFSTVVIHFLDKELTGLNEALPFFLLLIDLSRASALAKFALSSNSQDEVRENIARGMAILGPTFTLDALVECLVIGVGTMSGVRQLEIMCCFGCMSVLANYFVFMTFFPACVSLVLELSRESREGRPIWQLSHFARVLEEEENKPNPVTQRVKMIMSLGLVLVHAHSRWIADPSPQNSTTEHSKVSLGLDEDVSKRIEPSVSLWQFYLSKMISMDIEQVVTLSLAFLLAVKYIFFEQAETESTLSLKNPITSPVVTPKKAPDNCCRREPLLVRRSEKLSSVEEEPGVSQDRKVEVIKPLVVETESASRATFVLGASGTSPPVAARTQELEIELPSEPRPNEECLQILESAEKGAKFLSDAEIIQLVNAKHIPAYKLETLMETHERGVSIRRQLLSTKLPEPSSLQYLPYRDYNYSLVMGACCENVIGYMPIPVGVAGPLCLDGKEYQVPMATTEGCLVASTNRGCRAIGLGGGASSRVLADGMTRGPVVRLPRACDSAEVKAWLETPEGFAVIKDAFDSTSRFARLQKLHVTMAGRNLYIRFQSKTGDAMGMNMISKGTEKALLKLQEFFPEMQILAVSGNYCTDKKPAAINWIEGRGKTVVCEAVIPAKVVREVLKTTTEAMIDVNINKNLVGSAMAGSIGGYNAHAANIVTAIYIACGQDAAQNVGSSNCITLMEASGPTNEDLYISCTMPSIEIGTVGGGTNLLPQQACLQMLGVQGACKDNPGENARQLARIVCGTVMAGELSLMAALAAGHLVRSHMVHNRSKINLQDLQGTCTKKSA

SMILES | EC50 [nM]
C=CCC(O)(CC=C)CCC[C@@H](C)[C@H]1CC[C@H]2[C@@H]3[C@@H](O)C=C4C(C)(C)[C@@H](O)CC[C@]4(C)[C@H]3CC[C@]12C | 390
